Measurements published in the NIST ThermoML archive (doi:10.1016/j.jct.2010.08.010).

Conditions: Liquid, Buoyancy - hydrostatic balance with magnetic suspension - one sinker

CCO [ethanol]
Conditions	mass density [kg/m3]
233.15 K, 103.29 kPa	840.318
233.15 K, 1104.7 kPa	840.959
233.15 K, 2004.6 kPa	841.531
233.15 K, 4076.8 kPa	842.835
233.15 K, 6134.1 kPa	844.107
233.15 K, 8092.6 kPa	845.306
233.15 K, 10007 kPa	846.455
233.15 K, 12137 kPa	847.721
233.15 K, 14139 kPa	848.897
233.15 K, 16099 kPa	850.035
233.15 K, 18082 kPa	851.168
233.15 K, 20011 kPa	852.258
233.15 K, 22096 kPa	853.419
233.15 K, 24040 kPa	854.493
233.15 K, 25991 kPa	855.559
233.15 K, 27978 kPa	856.635
233.15 K, 29956 kPa	857.691
253.15 K, 102.67 kPa	823.303
253.15 K, 1104.1 kPa	824.013
253.15 K, 2003.9 kPa	824.651
253.15 K, 4116.4 kPa	826.119
253.15 K, 6065.7 kPa	827.455
253.15 K, 8137.6 kPa	828.849
253.15 K, 10136 kPa	830.174
253.15 K, 12072 kPa	831.443
253.15 K, 14126 kPa	832.763
253.15 K, 16133 kPa	834.037
253.15 K, 17950 kPa	835.17
253.15 K, 19863 kPa	836.357
253.15 K, 22055 kPa	837.687
253.15 K, 23993 kPa	838.859
253.15 K, 25929 kPa	840.004
253.15 K, 27985 kPa	841.212
253.15 K, 30009 kPa	842.379
273.15 K, 102.91 kPa	806.406
273.15 K, 1099 kPa	807.191
273.15 K, 2003.9 kPa	807.905
273.15 K, 4161.8 kPa	809.57
273.15 K, 6026.6 kPa	810.981
273.15 K, 8023.2 kPa	812.466
273.15 K, 10006 kPa	813.916
273.15 K, 12107 kPa	815.421
273.15 K, 13929 kPa	816.718
273.15 K, 15980 kPa	818.142
273.15 K, 17875 kPa	819.435
273.15 K, 20011 kPa	820.885
273.15 K, 21848 kPa	822.104
273.15 K, 24050 kPa	823.548
273.15 K, 25880 kPa	824.728
273.15 K, 27865 kPa	826.002
273.15 K, 29956 kPa	827.312
293.15 K, 103.01 kPa	789.433
293.15 K, 1103.9 kPa	790.313
293.15 K, 2004 kPa	791.096
293.15 K, 4147.8 kPa	792.937
293.15 K, 6147.5 kPa	794.616
293.15 K, 8110.8 kPa	796.232
293.15 K, 10008 kPa	797.758
293.15 K, 11860 kPa	799.229
293.15 K, 13880 kPa	800.802
293.15 K, 15954 kPa	802.391
293.15 K, 17852 kPa	803.817
293.15 K, 19967 kPa	805.383
293.15 K, 21842 kPa	806.743
293.15 K, 23888 kPa	808.2
293.15 K, 25963 kPa	809.658
293.15 K, 27862 kPa	810.975
293.15 K, 30031 kPa	812.452
313.15 K, 102.5 kPa	772.101
313.15 K, 1103.5 kPa	773.094
313.15 K, 2103.5 kPa	774.069
313.15 K, 4116 kPa	775.994
313.15 K, 6079.7 kPa	777.835
313.15 K, 8130.4 kPa	779.714
313.15 K, 10007 kPa	781.394
313.15 K, 12116 kPa	783.241
313.15 K, 14081 kPa	784.928
313.15 K, 16092 kPa	786.617
313.15 K, 18056 kPa	788.235
313.15 K, 19919 kPa	789.747
313.15 K, 22046 kPa	791.432
313.15 K, 24130 kPa	793.056
313.15 K, 26107 kPa	794.571
313.15 K, 27987 kPa	795.987
313.15 K, 29995 kPa	797.476
333.15 K, 1102.5 kPa	755.18
333.15 K, 2002.7 kPa	756.173
333.15 K, 4085.9 kPa	758.43
333.15 K, 6133 kPa	760.589
333.15 K, 8031.9 kPa	762.538
333.15 K, 9967.1 kPa	764.48
333.15 K, 12099 kPa	766.557
333.15 K, 13992 kPa	768.358
333.15 K, 16124 kPa	770.342
333.15 K, 18019 kPa	772.071
333.15 K, 20012 kPa	773.85
333.15 K, 22050 kPa	775.625
333.15 K, 24136 kPa	777.409
333.15 K, 26130 kPa	779.08
333.15 K, 28069 kPa	780.679
333.15 K, 30018 kPa	782.258
353.15 K, 1101.8 kPa	736.102
353.15 K, 2002.9 kPa	737.255
353.15 K, 4009.6 kPa	739.749
